In patent publication US20070066629A1:
Like-named read-outs stand apart in the source and are kept apart here.

System: Corticium solani (syn. Rhizoctonia sasakii)
Details: individual active compound, rice, evaluated after 11 days, untreated control 81% infection
Method: 1% by weight of the emulsifier Uniperol® EL (wetting agent having emulsifying and dispersing action based on ethoxylated alkylphenols) was added to this solution, and the solution was diluted with water to the desired concentration.
The next day, oat grains infected with Corticium solani were placed into the pots (in each case 5 grains per pot). The plants were then placed in a chamber at 26° C. and maximum atmospheric humidity.
Evaluation is carried out by determining the infected leaf areas in percent. These percentages were converted into efficacies.
The efficacy (E) is calculated as follows using Abbot's formula: E=(1−α/β)*100 α corresponds to the fungicidal infection of the treated plants in % and β corresponds to the fungicidal infection of the untreated (control) plants in %
An efficacy of 0 means that the infection level of the treated plants corresponds to that of the untreated control plants; an efficacy of 100 means that the treated plants were not infected.

| SMILES | Efficacy in % of the untreated control (1 ppm in the spray liquor) | Efficacy in % of the untreated control (4 ppm in the spray liquor) |
| --- | --- | --- |
| CO/C=C(/C(=O)OC)c1ccccc1Oc1cc(Oc2ccccc2C#N)ncn1 [I (azoxystrobin), azoxystrobin] | 1% | 26% |
| CC1CCN(c2c(-c3c(F)cc(F)cc3F)c(Cl)nc3ncnn23)CC1 [II, 5-chloro-7-(4-methylpiperidin-1-yl)-6-(2,4,6-trifluorophenyl)-[1,2,4]triazolo[1,5-a]pyrimidine] | 26% |  |
| CC1CCN(c2c(-c3c(F)cccc3Cl)c(Cl)nc3ncnn23)CC1 [A] | 26% |  |
